From US5091389A, “Lipophilic macrolide useful as an immunosuppressant” (Merck & Co., Inc., priority 1991, dated 1992)

Legend:
mouse T cells = assay: Inhibition of T-cell proliferation (mouse T cells stimulated with ionomycin + PMA, tritiated-thymidine incorporation); assay type: cell-based; conditions: for Percent Inhibition of Proliferation / reversal of inhibitory activity by exogenous IL-2: mouse T cells; for reversal of inhibitory activity by exogenous IL-2: exogenous IL-2 (50 units/ml)
Text: Biological activity as a immunosupressant can be measured in terms of inhibition of T-cell proliferation.

immune response = conditions: rats; cited from earlier work
[1] = tested on: heart, kidney, bowel, pancreas or other transplantation; conditions: in combination with Cyclosporin A; cited from earlier work
[2] = tested on: heterotopic heart allografts; conditions: rats given heterotopic heart allografts, cited from earlier work

Compound | Percent Inhibition of Proliferation (mouse T cells; 0.001 μM, ionomycin + PMA) [%] | Percent Inhibition of Proliferation (mouse T cells; 0.01 μM, ionomycin + PMA) [%] | Percent Inhibition of Proliferation (mouse T cells; 0.12 μM, ionomycin + PMA) [%] | Percent Inhibition of Proliferation (mouse T cells; 1.2 μM, ionomycin + PMA) [%] | Percent Inhibition of Proliferation (mouse T cells; 11.2 μM, ionomycin + PMA) [%] | reversal of inhibitory activity by exogenous IL-2 (mouse T cells; ionomycin + PMA) | inhibition of proliferation of mouse T cells (qualitative) (mouse T cells; ionomycin + PMA) | inhibition at 1.1 µM (mouse T cells; Mus musculus, T-cell, read-out: inhibited the proliferation) [%] | inhibition of the response to allergic encephalomyelitis, adjuvant-induced arthritis and antibody production (immune response) | effect on amount of Cyclosporin A required [1] | effect on nephrotoxicity of Cyclosporin A [1] | toxicity ([2]; compared with what would be anticipated with FK-506) | immunosuppression in heart allograft recipients [2]
COC1CC2CCC(C)C(O)(O2)C(=O)C(=O)N2CCCCC2C(=O)OC(C(C)CC2CCC(O)C(OC)C2)CC(=O)C(C)/C=C(\C)C(O)C(O)C(=O)C(C)CC(C)/C=C/C=C/C=C/1C (centres unmarked) [29-desmethyl-rapamycin, 29-desmethyl rapamycin] | 7 | 32 | 49 | 59 | 88 | not reversed by exogenous IL-2 | found to inhibit the proliferation of mouse T cells | – | – | – | – | – | –
CO[C@H]1C[C@@H]2CC[C@@H](C)[C@@](O)(O2)C(=O)C(=O)N2CCCC[C@H]2C(=O)O[C@H]([C@H](C)C[C@@H]2CC[C@@H](O)[C@H](OC)C2)CC(=O)[C@H](C)/C=C(\C)[C@@H](O)[C@@H](OC)C(=O)[C@H](C)C[C@H](C)/C=C/C=C/C=C/1C [rapamycin] | – | – | – | – | – | not reversed by exogenous IL-2 | – | 65 | inhibiting the response to allergic encephalomyelitis,adjuvant-induced arthritis and antibody production in rats | reducing the amount of Cyclosporin A required to produce its immunosupressive effect | effectively reducing the nephrotoxicity inherent in treatment with Cyclosporin A | less toxicity was said to be experienced than would be anticipated with FK-506 | immunosuppressive in rats given heterotopic heart allografts
